Data as given in ChEMBL document CHEMBL1134868, “Phosphonate and phosphinate analogues of N-acylated gamma-glutamylglutamate. potent inhibitors of glutamate carboxypeptidase II” (Bioorg Med Chem Lett, 2002).

Key:
[1] = biological target: T1, Folylpolyglutamate synthase, mitochondrial (Homo sapiens, UniProt Q05932); assay: Compound was evaluated for its ability to inhibit Folyl-poly-gamma-glutamyl synthetase
T1 sequence (Q05932 whole entry): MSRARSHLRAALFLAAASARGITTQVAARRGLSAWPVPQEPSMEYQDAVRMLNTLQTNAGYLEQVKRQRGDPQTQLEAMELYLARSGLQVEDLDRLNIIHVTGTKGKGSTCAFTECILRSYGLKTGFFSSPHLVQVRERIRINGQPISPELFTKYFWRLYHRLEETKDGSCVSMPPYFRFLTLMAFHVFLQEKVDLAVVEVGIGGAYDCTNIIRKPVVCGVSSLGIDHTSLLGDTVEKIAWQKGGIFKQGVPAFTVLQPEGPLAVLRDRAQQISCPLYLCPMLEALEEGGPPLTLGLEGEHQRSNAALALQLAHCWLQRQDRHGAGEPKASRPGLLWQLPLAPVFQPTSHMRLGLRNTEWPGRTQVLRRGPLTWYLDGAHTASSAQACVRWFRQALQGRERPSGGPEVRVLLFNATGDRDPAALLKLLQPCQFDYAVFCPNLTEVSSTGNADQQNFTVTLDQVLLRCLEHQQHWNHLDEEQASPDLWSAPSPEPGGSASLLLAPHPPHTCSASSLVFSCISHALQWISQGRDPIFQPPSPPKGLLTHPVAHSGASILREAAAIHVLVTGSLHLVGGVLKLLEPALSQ

[2] = biological target: Glutamate carboxypeptidase 2 (Rattus norvegicus, UniProt P70627); assay: Compound was evaluated for its ability to inhibit Glutamate carboxypeptidase-II using N-acetyl-L-aspartyl-[3H]L-glutamate as substrate
Glutamate carboxypeptidase 2, sequence (P70627 whole entry): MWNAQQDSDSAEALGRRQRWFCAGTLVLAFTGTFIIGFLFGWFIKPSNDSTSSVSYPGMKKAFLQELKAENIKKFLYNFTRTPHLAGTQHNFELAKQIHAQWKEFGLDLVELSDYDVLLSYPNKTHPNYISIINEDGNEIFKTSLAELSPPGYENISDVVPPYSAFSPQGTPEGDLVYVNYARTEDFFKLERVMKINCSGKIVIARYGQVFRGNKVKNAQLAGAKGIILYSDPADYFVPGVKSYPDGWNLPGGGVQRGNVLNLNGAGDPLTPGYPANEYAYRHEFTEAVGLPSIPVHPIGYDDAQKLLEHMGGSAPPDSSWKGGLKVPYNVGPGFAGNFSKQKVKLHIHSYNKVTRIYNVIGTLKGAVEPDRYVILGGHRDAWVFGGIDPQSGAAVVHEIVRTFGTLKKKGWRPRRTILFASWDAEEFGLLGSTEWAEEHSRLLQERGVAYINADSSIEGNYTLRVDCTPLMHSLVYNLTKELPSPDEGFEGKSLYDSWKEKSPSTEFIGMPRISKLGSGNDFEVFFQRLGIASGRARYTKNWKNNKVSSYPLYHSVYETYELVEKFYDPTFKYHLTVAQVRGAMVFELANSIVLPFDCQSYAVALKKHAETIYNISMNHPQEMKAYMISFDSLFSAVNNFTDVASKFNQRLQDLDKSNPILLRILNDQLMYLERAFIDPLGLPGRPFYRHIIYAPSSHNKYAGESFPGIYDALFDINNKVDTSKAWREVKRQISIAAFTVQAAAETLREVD

[3] = Compound was evaluated for its ability to inhibit Gamma glutamylhydroxylase

Compound	IC50 [1] [nM]	IC50 [2] [nM]	IC50 [3] [nM]
CNc1ccc(C(=O)N[C@@H](CCP(=O)(O)O[C@@H](CCC(=O)O)C(=O)O)C(=O)O)cc1	5700	4	–
CN(Cc1cnc2nc(N)nc(N)c2n1)c1ccc(C(=O)NC(CCP(=O)(O)OC(CCC(=O)O)C(=O)O)C(=O)O)cc1 (stereo not given)	20	5	–
Nc1ccc(C(=O)N[C@@H](CCP(=O)(O)O[C@@H](CCC(=O)O)C(=O)O)C(=O)O)cc1	8600	3	> 200000
CN(Cc1cnc2nc(N)nc(N)c2n1)c1ccc(C(=O)N[C@@H](CCP(=O)(O)O[C@@H](CCC(=O)O)C(=O)O)C(=O)O)cc1	120	4	> 200000
